Read-outs that look alike come from different tables or passages of the source.

Series [1] concerns isolated rabbit cornea. As to the kind of experiment: Transport of drug/prodrugs across freshly excised rabbit cornea. It is filed as in vitro ADME. To be noted: in presence of 5 mM glutamic acid.
Series [2] relates to [^3H] alanine uptake by rPCEC. The series is described as follows: Uptake of [3H] alanine by rPCEC in presence of prodrugs, kinetics and affinity. It is filed as cell-based, rabbit.
Series [3] can be described thus: Transport of drug/prodrugs across freshly excised rabbit cornea. Format: in vitro ADME. To be noted: New Zealand albino, rabbit, pH 7.4.
Series [4] deals with HSV-1. As to the kind of experiment: In vitro antiviral testing, CPE inhibition, HSV-1. It is filed as cell-based. Particulars: Human alphaherpesvirus 1, read-out: EC50 HSV-1 CPE inhibition.
Series [5] concerns HSV-2. The series is described as follows: In vitro antiviral testing, CPE inhibition, HSV-2. It is filed as cell-based. To be noted: Human alphaherpesvirus 2, read-out: EC50 HSV-2 CPE inhibition.
The test system of series [6] is [^3H] phenylalanine uptake by rPCEC. The series is described as follows: Uptake of [3H] phenylalanine by rPCEC in presence of prodrugs. Format: cell-based, rabbit. To be noted: 5 mM test substance.
Series [7] concerns [^3H] arginine uptake by rPCEC. The series is described as follows: Uptake of [3H] arginine by rPCEC in presence of prodrugs. Format: cell-based, rabbit. Particulars: 5 mM test substance.
Series [8] deals with HSV-1. To be noted: read-out: EC50 HSV-1; cited from earlier work.

With `O=C(O)CCC(=O)O` [succinate], the “Effect on transcorneal flux (in words)” value in series [1] is given as “did not cause any significant change”. The Km is the concentration of substrate that gives half-maximal velocity. As to `C[C@H](N)C(=O)O` [alanine, L-alanine], the “Effect on [^3H] alanine uptake (in words)” value in series [2] (5 mM test substance) is given as “significantly inhibited”. The “Vmax of alanine uptake” value in series [2] (no inhibitor, listed as [^3H] alanine) is listed as 0.84 μmoles·min^−1·mg protein^−1. Also, in series [2] (read-out: Km of alanine uptake, no inhibitor), the Km worked out at 710 µM. By Papp is commonly meant a coefficient for how fast a substance crosses the barrier. By EC50 is commonly meant the concentration giving half of the maximal effect. Regarding `Nc1nc2c(ncn2COCCO)c(=O)[nH]1` [ACV, acyclovir], in series [3], the Papp at 3 h, 1 mM turned out to be 2.33 ± 0.73 ×10⁻⁶ cm/s. Moreover, the EC50 in series [4] came to 7.1 µM; in series [5], 6.6 µM.

With `N[C@@H](Cc1ccccc1)C(=O)O` [phenylalanine], the “Effect on [^3H] phenylalanine uptake (in words)” value in series [6] is on record as “significantly inhibited”. Regarding `N=C(N)NCCC[C@H](N)C(=O)O` [arginine, L-arginine], the “Effect on [^3H] arginine uptake (in words)” value in series [7] was “significantly inhibited”.

With `CC(C)[C@H](N)C(=O)OCCOCn1cnc2c(=O)[nH]c(N)nc21` [VACV, valacyclovir], the EC50 in series [8] is 9.1 µM.

The values above are taken from PMC3661498 (Ophthalmology and Eye Diseases, 2010).
